Experimental data published in paper PMC8457735, “Synthesis, Kinetics, Binding Conformations and Structure-activity Relationship of Potent Tyrosinase Inhibitors: Aralkylated 2-aminothiazole-ethyltriazole Hybrids” (Iranian Journal of Pharmaceutical Research : IJPR, 2021).
Entries after “also recorded” stand apart in the source; their conditions may differ.

Experiments:
mushroom tyrosinase = mushroom tyrosinase (Agaricus bisporus, UniProt C7FF04); assay: Kinetic analysis of tyrosinase inhibition (Lineweaver-Burk and secondary plots); type: biochemical
mushroom tyrosinase, sequence (C7FF04 1-392): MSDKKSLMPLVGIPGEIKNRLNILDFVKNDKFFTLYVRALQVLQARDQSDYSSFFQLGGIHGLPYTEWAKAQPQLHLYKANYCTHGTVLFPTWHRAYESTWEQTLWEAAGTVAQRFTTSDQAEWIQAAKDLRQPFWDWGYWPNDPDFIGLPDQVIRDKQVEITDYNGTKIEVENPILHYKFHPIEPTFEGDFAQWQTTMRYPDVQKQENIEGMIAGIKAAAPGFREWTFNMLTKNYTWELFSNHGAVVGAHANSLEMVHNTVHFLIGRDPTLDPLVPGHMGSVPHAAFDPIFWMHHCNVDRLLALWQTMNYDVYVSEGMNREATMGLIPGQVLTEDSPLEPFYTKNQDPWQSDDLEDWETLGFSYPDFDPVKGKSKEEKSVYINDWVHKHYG
Procedure: A series of experiments were performed to determine the inhibition kinetics of 7g, following the already reported methods ([54]). The concentrations for 7g were 0.00, 0.0018, 0.0036 and 0.0072 µM. Substrate L-DOPA concentrations were between 0.0625 to 2 mM in all kinetic studies. Pre-incubation and measurement time was the same as discussed in the mushroom tyrosinase inhibition assay protocol. Maximal initial velocity was determined from the initial linear portion of absorbance up to five minutes after the addition of enzyme at the 30s interval. The inhibition type of the enzyme was assayed by Lineweaver-Burk plots of the inverse of velocities (1/V) versus the inverse of substrate concentration 1/[L-DOPA] mM^-1.

[1] = Free radical scavenging assay (DPPH); conditions: compound concentration 100 µg/mL
Procedure: Radical scavenging activity was determined by modifying the already reported method by 2, 2-diphenyl-1 picrylhydrazyl (DPPH) assay ([55]). The assay solution consisted of 100 µL of DPPH (150 µM), 20 µL of increasing concentration of test compounds, and the volume was adjusted to 200 µL in each well with CH3OH. After that, the assay reaction was then incubated for 30 minutes at room temperature. Ascorbic acid (Vitamin C) was used as a reference inhibitor. The assay measurements were carried out using a microplate reader (OPTI Max, Tunable) at 517 nm. The reaction rates were compared, and the percent inhibition caused by tested inhibitors was calculated. All experiments were repeated thrice.

Row | melting point | SMILES | radical scavenging activity [1] | other results
1 | 150 to 151 °C | CCn1c(Cc2csc(N)n2)nnc1SCc1ccc(Br)cc1 [Compound 7k, -({5-[(4-Bromobenzyl)sulfanyl]-4-ethyl-4H-1,2,4-triazol-3-yl}methyl)-1,3-thiazol-2-amine] |  | 
2 |  | CCn1c(Cc2csc(N)n2)nnc1SCc1ccc(Cl)cc1Cl [Compound 7g, 4-({5-[(2,4-Dichlorobenzyl)sulfanyl]-4-ethyl-4H-1,2,4-triazol-3-yl}methyl)-1,3-thiazol-2-amine] | 24% | Vmax (mushroom tyrosinase; L-DOPA activity in presence of 0.0018 µM 7g): 6.676 × 10^-5 ΔA/s; Vmax (mushroom tyrosinase; L-DOPA activity in presence of 0.0036 µM 7g): 4.712 × 10^-5 ΔA/s; Vmax (mushroom tyrosinase; L-DOPA activity in presence of 0.0072 µM 7g): 4.223 × 10^-5 ΔA/s; Inhibition Type (mushroom tyrosinase; Lineweaver-Burk plots, substrate L-DOPA 0.0625-2 mM): non-competitively; also recorded: Non-Competitive
3 | 108 to 109 °C | CCn1c(Cc2csc(N)n2)nnc1SCc1ccccc1Br [Compound 7i, 4-({5-[(2-Bromobenzyl)sulfanyl]-4-ethyl-4H-1,2,4-triazol-3-yl}methyl)-1,3-thiazol-2-amine] |  | 
4 |  | CCn1c(Cc2csc(N)n2)nnc1SCc1ccc(Cl)c(Cl)c1 [Compound 7h, 4-({5-[(3,4-Dichlorobenzyl)sulfanyl]-4-ethyl-4H-1,2,4-triazol-3-yl}methyl)-1,3-thiazol-2-amine] | 21% | 
